What was measured:
T-47D cells = test: T-47D cell proliferation (estrogenicity / cytotoxicity), MTS; type: cell-based
steroid sulfatase (STS) = molecular target: T1, steroid sulfatase (STS) (Homo sapiens, UniProt P08842); test: Steroid sulfatase (STS) inhibition, [3H]-E1S to [3H]-E1, homogenate of transfected HEK-293 cells; type: biochemical; conditions: transformation of E1S into E1 in homogenate of HEK-293 cells transfected with STS; read-out: Steroid Sulfatase Inhibition IC50
T1 construct: expressed in transfected cells; host or cells: HEK-293 cells stably transfected with STS (G418 selection), obtained from Dr. Van Luu-The; used as freeze-thaw homogenate
T1 sequence (P08842 22-583): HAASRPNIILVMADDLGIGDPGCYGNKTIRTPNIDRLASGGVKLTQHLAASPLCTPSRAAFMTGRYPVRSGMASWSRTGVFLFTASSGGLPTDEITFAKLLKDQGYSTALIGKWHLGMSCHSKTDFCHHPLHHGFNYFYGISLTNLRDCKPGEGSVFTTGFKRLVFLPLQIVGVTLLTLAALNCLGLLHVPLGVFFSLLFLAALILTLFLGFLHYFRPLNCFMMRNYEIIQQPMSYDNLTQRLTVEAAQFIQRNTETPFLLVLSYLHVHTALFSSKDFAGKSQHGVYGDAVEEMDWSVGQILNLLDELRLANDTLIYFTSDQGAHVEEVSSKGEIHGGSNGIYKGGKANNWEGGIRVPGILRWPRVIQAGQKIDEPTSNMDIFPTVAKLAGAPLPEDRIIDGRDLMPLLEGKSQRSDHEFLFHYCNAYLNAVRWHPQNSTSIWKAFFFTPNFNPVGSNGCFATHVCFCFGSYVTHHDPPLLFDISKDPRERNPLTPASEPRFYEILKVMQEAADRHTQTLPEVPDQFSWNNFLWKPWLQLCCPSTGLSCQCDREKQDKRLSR

[1] = tested on: osteoblast-like Saos-2 cells; test: Saos-2 cell proliferation, MTS; type: cell-based; conditions: in percentage of control (100%; 0.1 nM of estradiol)

- IC50 (steroid sulfatase (STS)): > 1 µM
SMILES: C[C@]12CC[C@@H]3c4ccc(O)cc4CC[C@H]3[C@@H]1CC[C@@H]2O [E2, 17β-estradiol, reference compound]
- T-47D cell proliferation (T-47D cells; 0.1 nM, control 100%, 7 days): approximately 160%
- Breast cancer cells T-47D (ER+) Agonist activity (%) (T-47D cells; 1 μM, in % of control (100%; 0.1 nM of estradiol)): 100%
- Bone cells Saos-2 (ER+) SERM effect Proliferative activity (%) ([1]; 0.1 μM): 100%
- Bone cells Saos-2 (ER+) SERM effect Proliferative activity (%) ([1]; 1 μM): 100%

From patent US9708305B2, “Substituted 1,2,3,4-tetrahydroisoquinoline derivatives for the treatment of hormone-dependent diseases” (UNIVERSITÉ LAVAL, priority 2013, dated 2017)
